Source: PMC5814560, “6-Thioguanine is a noncompetitive and slow binding inhibitor of human deubiquitinating protease USP2” (Scientific Reports, 2018)

Key:
[1] = target: T1, USP2 (ubiquitin-specific protease 2) (Homo sapiens, UniProt O75604); test: Ub-AFC deubiquitination kinetics, noncompetitive fit; very weak, called ineffective by the authors; type: biochemical; set-up: catalytic domain, residues 258–605; settings: read-out: Kis
Target sequence in this assay (O75604 258-605): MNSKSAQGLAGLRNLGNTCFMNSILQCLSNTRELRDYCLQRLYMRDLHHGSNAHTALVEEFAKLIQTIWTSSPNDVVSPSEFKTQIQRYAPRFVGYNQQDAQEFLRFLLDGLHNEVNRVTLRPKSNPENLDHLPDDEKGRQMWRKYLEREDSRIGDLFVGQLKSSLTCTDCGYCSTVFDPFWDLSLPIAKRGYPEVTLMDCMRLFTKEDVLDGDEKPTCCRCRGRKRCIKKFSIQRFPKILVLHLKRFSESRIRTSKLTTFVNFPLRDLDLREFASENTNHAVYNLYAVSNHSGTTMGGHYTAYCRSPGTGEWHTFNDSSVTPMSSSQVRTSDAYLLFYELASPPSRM

[2] = target: T1, USP2 (ubiquitin-specific protease 2); test: X-ray crystal structure (soak, […] Å, about […] occupancy); Ub-AFC deubiquitination kinetics (Kis […], IC50 […]); type: biochemical; set-up: catalytic domain, residues 258–605; with ubiquitin (Ub) in the crystal
Target sequence in this assay (O75604 258-605, other chains not shown): as the sequence (O75604 258-605) above

Ki [1] [µM]	SMILES	Ki [2] [µM]
349 ± 23.7	Sc1ncnc2nc[nH]c12 [6MP, 6-mercaptopurine]	–
–	Nc1nc2nc[nH]c2c(=S)[nH]1 [6TG, 6-thioguanine]	24.6 ± 1.8
